The term IC50 denotes the concentration needed to halve the response being measured.

The results in this text go back to ChEMBL document CHEMBL3822426, “A cascade screening approach for the identification of Bcr-Abl myristate pocket binders active against wild type and T315I mutant” (Bioorg Med Chem Lett, 2016).

Data set [1] has as its target Tyrosine-protein kinase ABL1 (Homo sapiens, UniProt P00519, T315I). The data set is described as follows: Allosteric inhibition of recombinant human N-terminal His6-tagged ABL (27-end residues) T315I mutant expressed in baculovirus infected sf21 cells using Abl-tide as substrate incubated for 10 mins in presence of [gamma32P]ATP by scintillation counting method.
Data set [2] in a line: Cytotoxicity against mouse 32D cells assessed as reduction in cell viability at 0.5 to 50 uM after 48 hrs by cell counting method. In kind it is cell-based.
Data set [3] in a line: Cytotoxicity against imatinib mesylate sensitive mouse 32D cells expressing wild type BCR/ABL p210 assessed as reduction in cell viability after 48 hrs by cell counting method. The class given is functional, cell-based.
Data set [4] is described as follows: Cytotoxicity against imatinib mesylate resistant mouse 32D cells expressing BCR/ABL T315I mutant assessed as reduction in cell viability after 48 hrs by cell counting method. In kind it is functional, cell-based.
Data set [5] has as its system Bcr/Abl fusion protein (Homo sapiens), P00519+P11274 [T315I]. The data set is described as follows: Inhibition of BCR/ABL T315I mutant (unknown origin) expressed in mouse 32D cells assessed as reduction in CRKL phosphorylation at Tyr-207 residue at 1 uM after 24 hrs by Western blot analysis. The class given is cell-based. Background: Immunoblotting shows a protein as a band on a membrane.

In data set [6] the target is Tyrosine-protein kinase ABL1 (Homo sapiens) (UniProt P00519). To be noted: 25 uM.
Description: Allosteric inhibition of recombinant wild type ABL (unknown origin) assessed as Vmax(app) for ATP at 25 uM incubated for 10 mins in presence of [gamma32P]ATP by scintillation counting method
Data set [7] has the same target. The settings on record: 50 uM.
Description: Allosteric inhibition of recombinant wild type ABL (unknown origin) assessed as Vmax(app) for ATP at 50 uM incubated for 10 mins in presence of [gamma32P]ATP by scintillation counting method
The target is the same in data set [8]. The settings on record: 100 uM.
Description: Allosteric inhibition of recombinant wild type ABL (unknown origin) assessed as Vmax(app) for ATP at 100 uM incubated for 10 mins in presence of [gamma32P]ATP by scintillation counting method
The subject of data set [9] is Tyrosine-protein kinase ABL1 (Homo sapiens), P00519 [T315I]. To be noted: Sf21, 25 uM.
Description: Allosteric inhibition of recombinant human N-terminal His6-tagged ABL (27-end residues) T315I mutant expressed in baculovirus infected sf21 cells assessed as Vmax(app) for ATP at 25 uM incubated for 10 mins in presence of [gamma32P]ATP by scintillation counting method
Data set [10] has the same test system. To be noted: Sf21, 50 uM.
Description: Allosteric inhibition of recombinant human N-terminal His6-tagged ABL (27-end residues) T315I mutant expressed in baculovirus infected sf21 cells assessed as Vmax(app) for ATP at 50 uM incubated for 10 mins in presence of [gamma32P]ATP by scintillation counting method
Data set [11] shares this test system. The settings on record: Sf21, 100 uM.
Description: Allosteric inhibition of recombinant human N-terminal His6-tagged ABL (27-end residues) T315I mutant expressed in baculovirus infected sf21 cells assessed as Vmax(app) for ATP at 100 uM incubated for 10 mins in presence of [gamma32P]ATP by scintillation counting method

Activity calls are given as the source filed them. The calls are words filed in the database; no cut-off is given here.

As to `C(=C\n1ncc2c(NC3CCCCC3)ncnc21)/c1ccccc1`, the results for the IC50 in [1], in data set [3] and in [4] were 50 µM, 8.5 µM and 25.1 µM, respectively. Moreover, the Activity entry in data set [2] is on record as “Non-toxic”. In data set [5], the inhibition entry is “Active”. The Vmax(app) was found to be 13.1 pmol/min in data set [6]; 8.57 pmol/min in data set [7]; 5.83 pmol/min in [8]; 15 pmol/min in data set [9]; 8.06 pmol/min in data set [10]; 4.95 pmol/min in [11].

Regarding `C(=C\n1ncc2c(N3CCCCCC3)ncnc21)/c1ccccc1`, the IC50 is 20 µM in data set [1], 1.2 µM in data set [3] and 13.8 µM in data set [4]. Further, the Activity entry in [2] is recorded as “Non-toxic”. In data set [5], the inhibition result was “Active”.
